Reference: patent US20170150719A1, “FUNGICIDAL PYRAZOLES AND THEIR MIXTURES” (E I DU PONT DE NEMOURS AND COMPANY, priority 2010, published 2017)

The compounds below were run on Puccinia recondita f. sp. tritici (assay: Test H: wheat leaf rust, preventive spray on wheat seedlings, visual disease rating). Conditions: read-out: Test H rating (disease control), wheat leaf rust, sprayed the day before inoculation; 100 = 100% disease control, 0 = no disease control.

First: Cc1nn(C)c(Nc2c(F)cc(F)cc2Br)c1-c1ccc(F)cc1F [Compound 143, N-(2-bromo-4,6-difluorophenyl)-4-(2,4-difluorophenyl)-1,3-dimethyl-1H-pyrazol-5-amine]
Second: Cc1nn(C)c(Nc2c(F)cc(Br)cc2F)c1-c1c(F)cccc1F [Compound 145, N-(4-bromo-2,6-difluorophenyl)-4-(2,6-difluorophenyl)-1,3-dimethyl-1H-pyrazol-5-amine]
The pest or weed control at 200 µg/mL of the first is higher: 100% for the first, 28% for the second.

Same assay, conditions: wheat leaf rust, preventive spray; 100 = 100% disease control; rating without asterisk

First: Cc1nn(C)c(Nc2c(F)cc(Cl)cc2I)c1-c1ccc(F)cc1F [compound 180]
Second: COc1ccc(-c2c(C)nn(C)c2Nc2c(F)cc(Cl)cc2F)c(F)c1 [compound 185]
The “Test H rating (% disease control)” value of the first is higher: 100% for the first, 99% for the second.

Compared with `Cc1nn(C)c(Nc2c(F)cc(Cl)cc2Br)c1-c1ccc(F)cc1Cl` [compound 186], `CCOc1ccc(-c2c(C)nn(C)c2Nc2c(Cl)cc(F)cc2Cl)c(F)c1` [compound 192] is lower in “Test H rating (% disease control)” value: 100% for the first, 65% for the second.

Compared with `CCOc1cc(F)c(-c2c(C)nn(C)c2Nc2c(F)cc(F)cc2Cl)c(F)c1` [compound 196], `CCOc1cc(F)c(-c2c(C)nn(C)c2Nc2c(F)cc(Cl)cc2F)c(F)c1` [compound 199] is lower in “Test H rating (% disease control)” value: 94% for the first, 83% for the second.

What follows are compounds tested on Septoria tritici (assay: Test F: wheat leaf blotch, preventive spray on wheat seedlings, visual disease rating). Conditions: Zymoseptoria tritici, 100 = 100% disease control, 0 = no disease control relative to the controls.
Assay type: in vivo
Description: (§1) A hyphen (-) indicates no test results.

`Cc1nn(C)c(Nc2c(F)cc(F)cc2Br)c1-c1ccc(F)cc1F` [Compound 143, N-(2-bromo-4,6-difluorophenyl)-4-(2,4-difluorophenyl)-1,3-dimethyl-1H-pyrazol-5-amine] and `Cc1nn(C)c(Nc2c(F)cc(Br)cc2F)c1-c1c(F)cccc1F` [Compound 145, N-(4-bromo-2,6-difluorophenyl)-4-(2,6-difluorophenyl)-1,3-dimethyl-1H-pyrazol-5-amine] are the same in pest or weed control at 200 µg/mL: 100% for the first, 100% for the second.

Same assay, conditions: preventive spray, 100 = 100% disease control, rating without asterisk

`Cc1nn(C)c(Nc2c(F)cc(Cl)cc2I)c1-c1ccc(F)cc1F` [compound 180] and `COc1ccc(-c2c(C)nn(C)c2Nc2c(F)cc(Cl)cc2F)c(F)c1` [compound 185] are the same in “Test F rating (% disease control)” value: 100% for the first, 100% for the second.

`Cc1nn(C)c(Nc2c(F)cc(Cl)cc2Br)c1-c1ccc(F)cc1Cl` [compound 186] and `CCOc1ccc(-c2c(C)nn(C)c2Nc2c(Cl)cc(F)cc2Cl)c(F)c1` [compound 192] are the same in “Test F rating (% disease control)” value: 100% for the first, 100% for the second.

`CCOc1cc(F)c(-c2c(C)nn(C)c2Nc2c(F)cc(F)cc2Cl)c(F)c1` [compound 196] and `CCOc1cc(F)c(-c2c(C)nn(C)c2Nc2c(F)cc(Cl)cc2F)c(F)c1` [compound 199] are the same in “Test F rating (% disease control)” value: 100% for the first, 100% for the second.

Each compound was assayed on Septoria nodorum (assay: Test E: Septoria glume blotch, preventive spray on wheat seedlings, visual disease rating). Conditions: Parastagonospora nodorum, in Triticum aestivum, read-out: Test E rating (disease control), Septoria glume blotch; 100 = 100% disease control, 0 = no disease control relative to the controls.

Going from `Cc1nn(C)c(Nc2c(F)cc(F)cc2Br)c1-c1ccc(F)cc1F` [Compound 143, N-(2-bromo-4,6-difluorophenyl)-4-(2,4-difluorophenyl)-1,3-dimethyl-1H-pyrazol-5-amine] to `Cc1nn(C)c(Nc2c(F)cc(Br)cc2F)c1-c1c(F)cccc1F` [Compound 145, N-(4-bromo-2,6-difluorophenyl)-4-(2,6-difluorophenyl)-1,3-dimethyl-1H-pyrazol-5-amine], the pest or weed control at 200 µg/mL falls from 100% to 0%.

Same assay, conditions: Septoria glume blotch on wheat, preventive spray; 100 = 100% disease control; rating without asterisk

First: Cc1nn(C)c(Nc2c(F)cc(Cl)cc2I)c1-c1ccc(F)cc1F [compound 180]
Second: COc1ccc(-c2c(C)nn(C)c2Nc2c(F)cc(Cl)cc2F)c(F)c1 [compound 185]
The “Test E rating (% disease control)” value of the first is higher: 99% for the first, 60% for the second.

Going from `Cc1nn(C)c(Nc2c(F)cc(Cl)cc2Br)c1-c1ccc(F)cc1Cl` [compound 186] to `CCOc1ccc(-c2c(C)nn(C)c2Nc2c(Cl)cc(F)cc2Cl)c(F)c1` [compound 192], the “Test E rating (% disease control)” value falls from 100% to 0%.

Compared with `CCOc1cc(F)c(-c2c(C)nn(C)c2Nc2c(F)cc(F)cc2Cl)c(F)c1` [compound 196], `CCOc1cc(F)c(-c2c(C)nn(C)c2Nc2c(F)cc(Cl)cc2F)c(F)c1` [compound 199] is lower in “Test E rating (% disease control)” value: 95% for the first, 69% for the second.

These compounds were tested on Botrytis cinerea (assay: Test A: tomato Botrytis, preventive spray on tomato seedlings, visual disease rating). Conditions: Botrytis cinerea, in Solanum lycopersicum, read-out: Test A rating (disease control), tomato Botrytis; 100 = 100% disease control, 0 = no disease control relative to the controls.

Going from `Cc1nn(C)c(Nc2c(F)cc(F)cc2Br)c1-c1ccc(F)cc1F` [Compound 143, N-(2-bromo-4,6-difluorophenyl)-4-(2,4-difluorophenyl)-1,3-dimethyl-1H-pyrazol-5-amine] to `Cc1nn(C)c(Nc2c(F)cc(Br)cc2F)c1-c1c(F)cccc1F` [Compound 145, N-(4-bromo-2,6-difluorophenyl)-4-(2,6-difluorophenyl)-1,3-dimethyl-1H-pyrazol-5-amine], the pest or weed control at 200 µg/mL falls from 100% to 99%.

Same assay, conditions: tomato Botrytis, preventive spray; 100 = 100% disease control, 0 = no control relative to controls; rating without asterisk

`Cc1nn(C)c(Nc2c(F)cc(Cl)cc2I)c1-c1ccc(F)cc1F` [compound 180] and `COc1ccc(-c2c(C)nn(C)c2Nc2c(F)cc(Cl)cc2F)c(F)c1` [compound 185] are the same in “Test A rating (% disease control)” value: 100% for the first, 100% for the second.

First: Cc1nn(C)c(Nc2c(F)cc(Cl)cc2Br)c1-c1ccc(F)cc1Cl [compound 186]
Second: CCOc1ccc(-c2c(C)nn(C)c2Nc2c(Cl)cc(F)cc2Cl)c(F)c1 [compound 192]
The “Test A rating (% disease control)” value of the first is higher: 100% for the first, 33% for the second.

`CCOc1cc(F)c(-c2c(C)nn(C)c2Nc2c(F)cc(F)cc2Cl)c(F)c1` [compound 196] and `CCOc1cc(F)c(-c2c(C)nn(C)c2Nc2c(F)cc(Cl)cc2F)c(F)c1` [compound 199] are the same in “Test A rating (% disease control)” value: 100% for the first, 100% for the second.

The compounds below were run on Puccinia recondita f. sp. tritici (assay: Test G: wheat leaf rust, spray after inoculation (curative) on wheat seedlings, visual disease rating). Conditions: spray after inoculation, 100 = 100% disease control, rating without asterisk.
Assay type: in vivo
Description: as §1

First: Cc1nn(C)c(Nc2c(F)cc(Cl)cc2I)c1-c1ccc(F)cc1F [compound 180]
Second: COc1ccc(-c2c(C)nn(C)c2Nc2c(F)cc(Cl)cc2F)c(F)c1 [compound 185]
The “Test G rating (% disease control)” value of the first is higher: 98% for the first, 0% for the second.

Going from `Cc1nn(C)c(Nc2c(F)cc(Cl)cc2Br)c1-c1ccc(F)cc1Cl` [compound 186] to `CCOc1ccc(-c2c(C)nn(C)c2Nc2c(Cl)cc(F)cc2Cl)c(F)c1` [compound 192], the “Test G rating (% disease control)” value falls from 100% to 0%.

`CCOc1cc(F)c(-c2c(C)nn(C)c2Nc2c(F)cc(F)cc2Cl)c(F)c1` [compound 196] and `CCOc1cc(F)c(-c2c(C)nn(C)c2Nc2c(F)cc(Cl)cc2F)c(F)c1` [compound 199] are the same in “Test G rating (% disease control)” value: 0% for the first, 0% for the second.

Same assay, conditions: sprayed after inoculation, 100 = 100% disease control, 0 = no disease control

Compared with `Cc1nn(C)c(Nc2c(F)cc(F)cc2Br)c1-c1ccc(F)cc1F` [Compound 143, N-(2-bromo-4,6-difluorophenyl)-4-(2,4-difluorophenyl)-1,3-dimethyl-1H-pyrazol-5-amine], `Cc1nn(C)c(Nc2c(F)cc(Br)cc2F)c1-c1c(F)cccc1F` [Compound 145, N-(4-bromo-2,6-difluorophenyl)-4-(2,6-difluorophenyl)-1,3-dimethyl-1H-pyrazol-5-amine] is lower in pest or weed control at 200 µg/mL: 100% for the first, 0% for the second.

These compounds were tested on Blumeria graminis f. sp. tritici (assay: Test I: wheat powdery mildew, preventive spray on wheat seedlings, visual disease rating). Conditions: Blumeria graminis, in Triticum aestivum, read-out: Test I rating (disease control), wheat powdery mildew; 100 = 100% disease control, 0 = no disease control relative to the controls.
Description: General protocol for preparing test suspensions for Tests A-I: the test compounds were first dissolved in acetone in an amount equal to 3% of the final volume and then suspended at the desired concentration (in ppm) in acetone and purified water (50/50 mix by volume) containing 250 ppm of the surfactant Trem® 014 (polyhydric alcohol esters). The resulting test suspensions were then used in Tests A-I. Each test was conducted in triplicate, and the results were averaged. Spraying a 200 ppm test suspension to the point of run-off on the test plants was the equivalent of a rate of about 800 g/ha. Unless otherwise indicated, the rating values indicate a 200 ppm test suspension was used. (An asterisk “*” next to the rating value indicates a 40 ppm test suspension was used.)
The test suspension was sprayed to the point of run-off on wheat seedlings. The following day the seedlings were inoculated with a spore dust of Blumeria graminis f. sp. tritici (also known as Erysiphe graminis f. sp. tritici, the causal agent of wheat powdery mildew) and incubated in a growth chamber at 20° C. for 8 days, after which time visual disease ratings were made.

Going from `Cc1nn(C)c(Nc2c(F)cc(F)cc2Br)c1-c1ccc(F)cc1F` [Compound 143, N-(2-bromo-4,6-difluorophenyl)-4-(2,4-difluorophenyl)-1,3-dimethyl-1H-pyrazol-5-amine] to `Cc1nn(C)c(Nc2c(F)cc(Br)cc2F)c1-c1c(F)cccc1F` [Compound 145, N-(4-bromo-2,6-difluorophenyl)-4-(2,6-difluorophenyl)-1,3-dimethyl-1H-pyrazol-5-amine], the pest or weed control at 200 µg/mL falls from 100% to 90%.

Same assay, conditions: wheat powdery mildew, preventive spray; 100 = 100% disease control; rating without asterisk

`Cc1nn(C)c(Nc2c(F)cc(Cl)cc2I)c1-c1ccc(F)cc1F` [compound 180] and `COc1ccc(-c2c(C)nn(C)c2Nc2c(F)cc(Cl)cc2F)c(F)c1` [compound 185] are the same in “Test I rating (% disease control)” value: 100% for the first, 100% for the second.

Going from `Cc1nn(C)c(Nc2c(F)cc(Cl)cc2Br)c1-c1ccc(F)cc1Cl` [compound 186] to `CCOc1ccc(-c2c(C)nn(C)c2Nc2c(Cl)cc(F)cc2Cl)c(F)c1` [compound 192], the “Test I rating (% disease control)” value falls from 100% to 35%.

Compared with `CCOc1cc(F)c(-c2c(C)nn(C)c2Nc2c(F)cc(F)cc2Cl)c(F)c1` [compound 196], `CCOc1cc(F)c(-c2c(C)nn(C)c2Nc2c(F)cc(Cl)cc2F)c(F)c1` [compound 199] is lower in “Test I rating (% disease control)” value: 100% for the first, 99% for the second.

These compounds were tested on Alternaria solani (assay: Test B: tomato early blight, preventive spray on tomato seedlings, visual disease rating). Conditions: Alternaria solani, in Solanum lycopersicum, read-out: Test B rating (disease control).

Compared with `Cc1nn(C)c(Nc2c(F)cc(F)cc2Br)c1-c1ccc(F)cc1F` [Compound 143, N-(2-bromo-4,6-difluorophenyl)-4-(2,4-difluorophenyl)-1,3-dimethyl-1H-pyrazol-5-amine], `Cc1nn(C)c(Nc2c(F)cc(Br)cc2F)c1-c1c(F)cccc1F` [Compound 145, N-(4-bromo-2,6-difluorophenyl)-4-(2,6-difluorophenyl)-1,3-dimethyl-1H-pyrazol-5-amine] is lower in pest or weed control at 200 µg/mL: 100% for the first, 0% for the second.

Same assay, conditions: tomato early blight, preventive spray; 100 = 100% disease control; rating without asterisk

Going from `Cc1nn(C)c(Nc2c(F)cc(Cl)cc2I)c1-c1ccc(F)cc1F` [compound 180] to `COc1ccc(-c2c(C)nn(C)c2Nc2c(F)cc(Cl)cc2F)c(F)c1` [compound 185], the “Test B rating (% disease control)” value falls from 100% to 99%.

Compared with `Cc1nn(C)c(Nc2c(F)cc(Cl)cc2Br)c1-c1ccc(F)cc1Cl` [compound 186], `CCOc1ccc(-c2c(C)nn(C)c2Nc2c(Cl)cc(F)cc2Cl)c(F)c1` [compound 192] is lower in “Test B rating (% disease control)” value: 100% for the first, 66% for the second.

`CCOc1cc(F)c(-c2c(C)nn(C)c2Nc2c(F)cc(F)cc2Cl)c(F)c1` [compound 196] and `CCOc1cc(F)c(-c2c(C)nn(C)c2Nc2c(F)cc(Cl)cc2F)c(F)c1` [compound 199] are the same in “Test B rating (% disease control)” value: 100% for the first, 100% for the second.

What follows are compounds tested on Phytophthora infestans (assay: whole plant or invertebrate). Conditions: Phytophthora infestans, in Solanum lycopersicum, read-out: Test C rating (disease control).
Assay type: in vivo

`Cc1nn(C)c(Nc2c(F)cc(F)cc2Br)c1-c1ccc(F)cc1F` [Compound 143, N-(2-bromo-4,6-difluorophenyl)-4-(2,4-difluorophenyl)-1,3-dimethyl-1H-pyrazol-5-amine] and `Cc1nn(C)c(Nc2c(F)cc(Br)cc2F)c1-c1c(F)cccc1F` [Compound 145, N-(4-bromo-2,6-difluorophenyl)-4-(2,6-difluorophenyl)-1,3-dimethyl-1H-pyrazol-5-amine] are the same in pest or weed control at 200 µg/mL: 0% for the first, 0% for the second.

Same assay, conditions: tomato late blight, preventive spray; 100 = 100% disease control; rating without asterisk

First: Cc1nn(C)c(Nc2c(F)cc(Cl)cc2I)c1-c1ccc(F)cc1F [compound 180]
Second: COc1ccc(-c2c(C)nn(C)c2Nc2c(F)cc(Cl)cc2F)c(F)c1 [compound 185]
The “Test C rating (% disease control)” value of the first is higher: 9% for the first, 0% for the second.

`Cc1nn(C)c(Nc2c(F)cc(Cl)cc2Br)c1-c1ccc(F)cc1Cl` [compound 186] and `CCOc1ccc(-c2c(C)nn(C)c2Nc2c(Cl)cc(F)cc2Cl)c(F)c1` [compound 192] are the same in “Test C rating (% disease control)” value: 0% for the first, 0% for the second.

Compared with `CCOc1cc(F)c(-c2c(C)nn(C)c2Nc2c(F)cc(F)cc2Cl)c(F)c1` [compound 196], `CCOc1cc(F)c(-c2c(C)nn(C)c2Nc2c(F)cc(Cl)cc2F)c(F)c1` [compound 199] is higher in “Test C rating (% disease control)” value: 0% for the first, 68% for the second.
